In BindingDB's records for doi:10.1111/cbdd.12863 (Guangzhou Institutes of Biomedicine and Health, Chinese …, 2017):

Key:
[1] = molecular target: T1, Discoidin domain-containing receptor 2 (Homo sapiens, UniProt Q16832); test: LanthaScreen Eu Kinase Activity Assay; details: pH 7.5; 25 °C
T1 sequence (Q16832 whole entry): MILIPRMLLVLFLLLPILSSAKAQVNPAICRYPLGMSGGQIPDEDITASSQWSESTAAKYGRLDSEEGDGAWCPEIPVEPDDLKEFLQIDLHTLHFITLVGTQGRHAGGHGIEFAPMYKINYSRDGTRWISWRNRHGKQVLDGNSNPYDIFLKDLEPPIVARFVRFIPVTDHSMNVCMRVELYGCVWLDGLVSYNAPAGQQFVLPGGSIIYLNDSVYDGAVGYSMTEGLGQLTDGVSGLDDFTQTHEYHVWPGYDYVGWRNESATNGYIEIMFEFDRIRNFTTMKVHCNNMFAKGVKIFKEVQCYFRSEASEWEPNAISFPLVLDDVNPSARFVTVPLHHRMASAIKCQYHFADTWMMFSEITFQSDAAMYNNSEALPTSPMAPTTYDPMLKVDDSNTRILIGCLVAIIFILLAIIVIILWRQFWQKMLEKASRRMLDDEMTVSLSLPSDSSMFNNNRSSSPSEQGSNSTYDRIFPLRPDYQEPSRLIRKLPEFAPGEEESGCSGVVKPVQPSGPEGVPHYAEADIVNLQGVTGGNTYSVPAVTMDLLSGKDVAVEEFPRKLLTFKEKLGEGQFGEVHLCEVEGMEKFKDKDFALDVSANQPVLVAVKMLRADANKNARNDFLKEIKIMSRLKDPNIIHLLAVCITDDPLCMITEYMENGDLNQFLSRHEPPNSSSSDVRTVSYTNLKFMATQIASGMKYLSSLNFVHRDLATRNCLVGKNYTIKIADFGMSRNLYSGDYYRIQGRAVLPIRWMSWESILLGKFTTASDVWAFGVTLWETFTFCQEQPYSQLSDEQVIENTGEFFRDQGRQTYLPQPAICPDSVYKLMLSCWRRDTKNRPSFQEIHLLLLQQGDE
Method: (§1) The effects of compounds on the kinases DDR1 and DDR2 were assessed by using a LanthaScreen Eu kinase activity assay technology (Invitrogen, Carlsbad, CA, USA). […] Reaction buffer for the kinase reaction consists of 50 mm HEPES pH 7.5, 0.01% BRIJ-35, 10 mm MgCl2, and 1 mm EGTA. The concentration of fluorescein-polyGAT substrate (Invitrogen) in the assay was […] reactions were initiated with the addition of […] in the presence of serial dilutions of compounds. The reactions were allowed to proceed for 1 hour at room temperature before a 10 μL preparation of EDTA (20 mm) and Eu-labeled antibody (4 nm) in TR-FRET dilution buffer was added. The final concentration of antibody in the assay well was 2 nm, and the final concentration of EDTA was 10 mm.

[2] = molecular target: Epithelial discoidin domain-containing receptor 1 (Homo sapiens, UniProt Q08345); test: LanthaScreen Eu Kinase Activity Assay; details: pH 7.5; 25 °C
Sequence of Epithelial discoidin domain-containing receptor 1 (Q08345 whole entry, the tested form may be a part): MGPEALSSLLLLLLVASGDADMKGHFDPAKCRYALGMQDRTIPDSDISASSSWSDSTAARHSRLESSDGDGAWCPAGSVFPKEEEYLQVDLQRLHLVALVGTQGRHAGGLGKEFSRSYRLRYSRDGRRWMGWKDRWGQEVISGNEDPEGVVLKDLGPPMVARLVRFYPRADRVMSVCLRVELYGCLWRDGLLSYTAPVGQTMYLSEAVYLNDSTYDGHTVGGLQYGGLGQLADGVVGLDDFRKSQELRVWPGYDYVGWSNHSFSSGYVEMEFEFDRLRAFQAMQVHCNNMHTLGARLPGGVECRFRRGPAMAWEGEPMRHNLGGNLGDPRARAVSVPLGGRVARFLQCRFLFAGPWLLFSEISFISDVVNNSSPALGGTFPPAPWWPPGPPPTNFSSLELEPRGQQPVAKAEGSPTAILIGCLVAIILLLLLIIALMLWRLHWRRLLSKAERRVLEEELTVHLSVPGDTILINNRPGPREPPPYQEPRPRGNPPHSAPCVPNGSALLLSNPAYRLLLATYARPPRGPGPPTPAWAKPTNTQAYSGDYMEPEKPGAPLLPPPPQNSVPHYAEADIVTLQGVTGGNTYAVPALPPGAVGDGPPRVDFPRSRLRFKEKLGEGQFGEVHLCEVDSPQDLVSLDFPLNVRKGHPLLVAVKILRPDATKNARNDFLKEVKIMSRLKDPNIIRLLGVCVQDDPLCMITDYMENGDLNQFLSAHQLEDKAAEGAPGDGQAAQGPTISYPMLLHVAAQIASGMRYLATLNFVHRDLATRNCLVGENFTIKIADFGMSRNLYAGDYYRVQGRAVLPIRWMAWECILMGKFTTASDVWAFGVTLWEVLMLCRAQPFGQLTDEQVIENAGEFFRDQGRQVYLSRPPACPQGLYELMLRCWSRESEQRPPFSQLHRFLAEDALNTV
Method: as §1

IC50 [1]: 14 nM
IC50 [2]: 5.99 nM
Compound: Cc1nc(Nc2ncc(C(=O)Nc3c(C)cccc3Cl)s2)cc(N2CCN(C(=O)OC(C)C)CC2)n1 [Isopropyl 4-(6-((5-((2-chloro-6-methylphenyl)carbamoyl)thiazol-2-yl)amino)-2-methylpyrimidin-4-yl)-piperazine-1-carboxylate (3c)]
